Data reported in ChEMBL document CHEMBL1141458, “Prospects for metabotropic glutamate 1 receptor antagonists in the treatment of neuropathic pain” (J Med Chem, 2007).
pEC50, pIC50: −log10 of the molar value.

How the values were obtained:
Type in all cases: functional
[1] = biological target: T1, Metabotropic glutamate receptor 1 (Homo sapiens, UniProt Q13255); assay: Antagonist activity at mGlu1 receptor
[2] = biological target: T1, Metabotropic glutamate receptor 1; assay: Antagonist activity at human mGlu1 receptor
[3] = biological target: T2, Metabotropic glutamate receptor 2 (Homo sapiens, UniProt Q14416); assay: Antagonist activity at mGlu2 receptor
T2 sequence (Q14416 whole entry): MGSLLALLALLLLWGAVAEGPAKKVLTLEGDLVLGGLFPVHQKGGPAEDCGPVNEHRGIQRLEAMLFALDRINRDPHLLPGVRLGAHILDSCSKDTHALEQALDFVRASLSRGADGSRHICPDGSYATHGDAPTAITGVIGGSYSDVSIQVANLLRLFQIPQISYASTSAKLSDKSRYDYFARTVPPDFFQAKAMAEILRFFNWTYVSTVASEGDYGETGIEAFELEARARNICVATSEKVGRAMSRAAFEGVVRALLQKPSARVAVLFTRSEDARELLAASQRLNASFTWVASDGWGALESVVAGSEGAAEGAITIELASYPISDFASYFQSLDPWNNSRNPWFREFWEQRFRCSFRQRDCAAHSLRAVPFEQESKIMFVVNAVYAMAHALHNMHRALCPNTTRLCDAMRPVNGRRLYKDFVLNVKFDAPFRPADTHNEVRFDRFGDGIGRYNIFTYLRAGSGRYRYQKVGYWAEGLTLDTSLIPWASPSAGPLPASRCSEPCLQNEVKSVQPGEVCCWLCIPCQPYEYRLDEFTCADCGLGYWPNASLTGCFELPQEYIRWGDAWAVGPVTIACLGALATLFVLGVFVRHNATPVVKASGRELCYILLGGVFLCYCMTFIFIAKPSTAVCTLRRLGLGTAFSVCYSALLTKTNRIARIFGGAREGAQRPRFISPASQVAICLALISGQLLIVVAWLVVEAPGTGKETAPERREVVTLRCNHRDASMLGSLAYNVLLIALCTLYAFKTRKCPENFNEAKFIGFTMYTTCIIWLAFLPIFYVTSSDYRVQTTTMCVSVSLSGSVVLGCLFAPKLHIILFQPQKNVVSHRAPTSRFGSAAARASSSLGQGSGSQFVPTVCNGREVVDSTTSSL

Mus musculus [4] = assay: Effect on pain in po dosed mouse in early phase of formalin assay
Mus musculus [5] = assay: Effect on pain in po dosed mouse in late phase of formalin assay
Rattus norvegicus [6] = assay: Effect on pain in ip dosed rat in late phase of formalin assay
[7] = biological target: T1, Metabotropic glutamate receptor 1; assay: Antagonist activity at human mGlu1b receptor
Rattus norvegicus [8] = assay: Effect on CFA-induced hyperalgesia in ip dosed rat
Rattus norvegicus [9] = assay: Effect on carrageenan model of inflammatory pain in ip dosed rat
[10] = biological target: T2, Metabotropic glutamate receptor 2; assay: Agonist activity at mGlu2 receptor

T1 sequence (Q13255 whole entry): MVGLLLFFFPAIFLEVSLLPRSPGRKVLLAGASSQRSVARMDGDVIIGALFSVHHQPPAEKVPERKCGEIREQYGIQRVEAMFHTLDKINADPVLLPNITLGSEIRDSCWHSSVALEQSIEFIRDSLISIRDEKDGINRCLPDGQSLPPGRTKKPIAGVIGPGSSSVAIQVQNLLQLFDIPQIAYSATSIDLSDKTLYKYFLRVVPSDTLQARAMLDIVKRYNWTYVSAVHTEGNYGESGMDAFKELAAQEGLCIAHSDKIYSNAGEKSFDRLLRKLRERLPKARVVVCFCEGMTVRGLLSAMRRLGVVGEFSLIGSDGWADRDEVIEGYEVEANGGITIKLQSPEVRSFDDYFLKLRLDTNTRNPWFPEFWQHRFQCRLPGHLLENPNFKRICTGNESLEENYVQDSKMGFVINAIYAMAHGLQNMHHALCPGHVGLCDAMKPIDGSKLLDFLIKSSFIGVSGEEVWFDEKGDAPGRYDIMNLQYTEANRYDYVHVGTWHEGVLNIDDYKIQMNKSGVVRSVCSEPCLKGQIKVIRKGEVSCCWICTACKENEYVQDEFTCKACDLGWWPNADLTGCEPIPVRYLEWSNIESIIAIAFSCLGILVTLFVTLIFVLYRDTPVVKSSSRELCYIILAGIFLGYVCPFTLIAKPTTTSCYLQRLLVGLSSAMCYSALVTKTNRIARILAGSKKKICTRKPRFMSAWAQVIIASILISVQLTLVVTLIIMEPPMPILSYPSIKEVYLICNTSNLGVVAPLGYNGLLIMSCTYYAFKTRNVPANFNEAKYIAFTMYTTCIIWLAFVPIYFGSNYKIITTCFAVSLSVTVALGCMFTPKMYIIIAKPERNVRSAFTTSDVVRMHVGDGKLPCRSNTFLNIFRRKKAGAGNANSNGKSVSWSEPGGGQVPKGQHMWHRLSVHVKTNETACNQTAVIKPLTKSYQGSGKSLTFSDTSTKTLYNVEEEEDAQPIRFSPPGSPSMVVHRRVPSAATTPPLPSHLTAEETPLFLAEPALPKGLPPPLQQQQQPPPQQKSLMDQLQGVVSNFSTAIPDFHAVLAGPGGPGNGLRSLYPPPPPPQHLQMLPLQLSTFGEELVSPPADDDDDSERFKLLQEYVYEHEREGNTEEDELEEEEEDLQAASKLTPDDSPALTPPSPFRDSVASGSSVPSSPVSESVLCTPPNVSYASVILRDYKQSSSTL

**Q.** How did the pIC50 [1] turn out when `N[C@H](C(=O)O)c1ccc(O)c(C(=O)O)c1` was run?
**A.** 4.40

**Q.** `CO[C@H]1CC[C@@H](C(=O)c2ccc3nc4c(cc3c2)CCCO4)CC1` was tested. Which pIC50 [2] did it give?
**A.** 8.92

**Q.** `C=C1C[C@@H]2COC(=O)[C@]2(Cc2ccc3ccccc3c2)C1` was tested. Which pIC50 [1] did it give?
**A.** 6.80

**Q.** With `Cc1c(C2=CCC(C(=O)N(C)C(C)C)CC2)nnn1-c1cccnc1F` (configuration not stated) as the compound, how does the pIC50 [1] read?
**A.** 8.22

**Q.** With `COc1ccc(Nc2ncnc3ccc(OC)cc23)cc1` as the compound, how does the pIC50 [1] read?
**A.** 7.02

**Q.** With `C[C@@](N)(C(=O)O)c1ccc(C(=O)O)cc1` as the compound, how does the pIC50 [1] read?
**A.** 5.37

**Q.** What about the pIC50 [3] of the same compound?
**A.** 5.37

**Q.** `CCCOC(=O)c1[nH]c(C)c(C(=O)OC(C)C(C)(C)C)c1C` (configuration not stated) was tested. Which ED50 (Mus musculus [4]) did it give?
**A.** 0.3 mg/kg

**Q.** And the ED50 (Mus musculus [5])?
**A.** 0.3 mg/kg

**Q.** And the ED50 (Rattus norvegicus [6])?
**A.** 3 mg/kg

**Q.** How did the pIC50 [7] turn out when `CCOC(=O)C12CC1/C(=N\O)c1ccccc1O2` (configuration not stated) was run?
**A.** 5.18

**Q.** `CCc1ccc(-n2cnc3c(sc4nccc(N(C)C)c43)c2=O)cc1` was tested. Which ED50 (Rattus norvegicus [8]) did it give?
**A.** 15 µmol/kg

**Q.** What about the ED50 (Rattus norvegicus [9]) of the same compound?
**A.** 11 µmol/kg

**Q.** And the ED50 (Rattus norvegicus [6])?
**A.** 15 µmol/kg

**Q.** How did the pEC50 [10] turn out when `N[C@H](C(=O)O)c1ccc(C(=O)O)c(O)c1` was run?
**A.** 4.32

**Q.** `NC(CC1c2ccccc2Sc2ccccc21)(C(=O)O)C1CC(C(=O)O)C1` (configuration not stated) was tested. Which pIC50 [1] did it give?
**A.** 6.00

**Q.** How did the pIC50 [1] turn out when `N[C@H](C(=O)O)c1ccc(C(=O)O)cc1` was run?
**A.** 5.00
